In patent US9441000B2, “Use of metallocene compounds for cancer treatment” (Chevron Phillips Chemical Company LP, priority 2011, dated 2016):

Assays:
Type in all cases: cell-based
[1] = test system: MeWo chemoresistant melanoma cancer cells; test: CellTiter-Blue viability assay, MeWo; details: Homo sapiens, 96 hr treatment, approximately 5,000 MeWo cells
Procedure: (§1) Examples 18-22 were prepared and tested as follows. Approximately 5,000 A549 cells (University of Texas M.D. Anderson Cancer Center) growing in RPMI 1640 were plated in each 96-well overnight before adding the test compounds for 96 hr of treatment. Final concentrations achieved in the wells were 0, 0.8, 1.6, 3.1, 6.2, 12.5, 25, 50, 100, and 200 μM. All of the test compounds were reconstituted in DMSO just before the treatment. […] After 96 hr, the medium was refreshed. Approximately 10 μL of CellTiter-Blue® (Promega) was added to 100 μL of medium in each well and incubated at 37° C. for >4 hours. The plates were scanned using a SpectraMax M2 model microplate reader to measure the absorbance. CellTiter-Blue contains dark blue resazurin. Viable cells are able to convert non-fluorescent resazurin to its fluorescent product, resorufin. […] Reduction of resazurin to resorufin also involves a shift of the absorbance maximum from 605 nm to 573 nm, so viability can also be estimated using absorbance. Results were normalized to untreated controls to determine the percent reduction in viability. Graphs were generated using GraphPad Prism (GraphPad Software, Inc).
Examples 50-53 were prepared and tested using substantially the same procedure as described in Examples 18-22, except that approximately 5,000 MeWo melanoma cancer cells (University of Texas M.D. Anderson Cancer Center) were used. […]

[2] = test system: Hey-A8 MDR chemoresistant ovarian cancer cells; test: CellTiter-Blue viability assay, Hey-A8 MDR; details: HeyA8-MDR, 96 hr treatment, approximately 5,000 Hey-A8 MDR cells
Procedure: as §1
Examples 38-41 were prepared and tested using substantially the same procedure as described in Examples 18-22, except that approximately 5,000 Hey-A8 MDR ovarian cancer cells (University of Texas M.D. Anderson Cancer Center) were used. […]

[3] = test system: NCI-Adr-Res chemoresistant ovarian cancer cells; test: CellTiter-Blue viability assay, NCI-Adr-Res; details: Homo sapiens, 96 hr treatment, approximately 5,000 NCI-Adr-Res cells
Procedure: as §1
Examples 42-45 were prepared and tested using substantially the same procedure as described in Examples 18-22, except that approximately 5,000 NCI-Adr-Res ovarian cancer cells (National Cancer Institute) were used. […]

[4] = test system: A549 (lung carcinoma) cell line; test: Sulforhodamine-B (SRB) microculture colorimetric cytotoxicity assay, A549; details: 96 hr treatment, A549 lung carcinoma cells, read-out: IC50 ± SD, A549
Procedure: (§2) Drug solutions of CPH-1, CPH-2 and CPH-3 were made in dimethyl sulfoxide (DMSO, Sigma Aldrich) at a concentration of 20 mM, filtered through a Millipore filter, 0.22 μm, before use, and diluted by nutrient medium to various working concentrations. The nutrient medium was RPMI-1640 (PAA Laboratories) supplemented with 10% fetal bovine serum (Biochrom AG) and penicillin/streptomycin (PAA Laboratories). […]
(§3) The cytotoxic activities of CPH-1, CPH-2 and CPH-3 were evaluated using a sulforhodamine-B (SRB, Sigma Aldrich) microculture colorimetric assay, as described in Skehan et al., J. Natl. Cancer I. 82 (1990) 1107-1112, the disclosure of which is incorporated herein by reference in its entirety. […] The percentages of surviving cells relative to untreated controls were determined 96 hr after the beginning of drug exposure. […] After dyeing, the plates were again washed to remove the dye with 1% acetic acid and allowed to air dry overnight, 100 μL of 10 mM Tris base solutions were added to each well of the plate, and absorbance was measured at 570 nm using a 96 well plate reader (Tecan Spectra, Crailsheim, Germany). […]

[5] = test system: A253 (head and neck tumor) cell line; test: Sulforhodamine-B (SRB) microculture colorimetric cytotoxicity assay, A253; details: 96 hr treatment, A253 head and neck tumor cells, read-out: IC50 ± SD, A253
Procedure: as §2, §3

[6] = test system: A2780 ovarian cancer cells; test: CellTiter-Blue viability assay, A2780, approximately 2,000 cells (Examples 23-27); details: 96 hr treatment, approximately 2,000 A2780 cells
Procedure: as §1
Examples 23-27 were prepared and tested using substantially the same procedure as described in Examples 18-22, except that approximately 2,000 A2780 ovarian cancer cells (University of Texas M.D. Anderson Cancer Center) were used. […]

[7] = test system: T-24 chemoresistant urinary bladder cancer cells; test: CellTiter-Blue viability assay, T-24; details: 96 hr treatment, approximately 5,000 T-24 cells
Procedure: as §1
Examples 46-49 were prepared and tested using substantially the same procedure as described in Examples 18-22, except that approximately 5,000 T-24 urinary bladder cancer cells (American Type Culture Collection) were used. […]

[8] = test system: A549 lung carcinoma cell line; test: CellTiter-Blue viability assay, A549 (Examples 18-22); details: 96 hr treatment, approximately 5,000 A549 cells per well
Procedure: as §1

[9] = test system: A2780 (ovarian cancer) cell line; test: Sulforhodamine-B (SRB) microculture colorimetric cytotoxicity assay, A2780; details: 96 hr treatment, A2780 ovarian cancer cells, read-out: IC50 ± SD, A2780
Procedure: as §2, §3

[10] = test system: SKOV-3 chemoresistant ovarian cancer cells; test: CellTiter-Blue viability assay, SKOV-3; details: 96 hr treatment, approximately 5,000 SKOV-3 cells
Procedure: as §1
Examples 34-37 were prepared and tested using substantially the same procedure as described in Examples 18-22, except that approximately 5,000 SKOV-3 ovarian cancer cells (American Type Culture Collection) were used. […]

Structure (SMILES): CN(C)/N=N/c1[nH]cnc1C(N)=O [Dacarbazine, dacarbazine, reference compound]
- IC50 [1]: 7.9 µM

Structure (SMILES): CC(=O)O[C@H]1C(=O)[C@@]2(C)[C@H]([C@H](OC(=O)c3ccccc3)[C@]3(O)C[C@H](OC(=O)[C@H](O)[C@@H](NC(=O)c4ccccc4)c4ccccc4)C(C)=C1C3(C)C)[C@]1(OC(C)=O)CO[C@@H]1C[C@@H]2O [Paclitaxel, paclitaxel, reference compound]
- IC50 [2]: 0.03 µM

Structure (SMILES): COc1cccc2c1C(=O)c1c(O)c3c(c(O)c1C2=O)C[C@@](O)(C(=O)CO)C[C@@H]3O[C@H]1C[C@H](N)[C@H](O)[C@H](C)O1 [Doxorubicin, doxorubicin, reference compound]
- IC50 [3]: 14.3 µM

Structure (SMILES): N.N.[Cl][Pt][Cl] [Cisplatin, cisplatin, reference compound]
- IC50 [4]: 1.51 ± 0.02 µM
- IC50 [5]: 0.81 ± 0.02 µM
- IC50 [6]: 35.4 µM
- IC50 [7]: > 200 µM
- IC50 [8]: 82.7 µM
- IC50 [9]: 0.55 ± 0.03 µM
- IC50 [10]: 12.8 µM
